The target in assay [1] is catalytic domain of human Bub1 (amino acids 704-1085) (Homo sapiens (Human), UniProt O43683). Kind of assay: Bub1 kinase assay (TR-FRET). It is filed as biochemical. The settings on record: read-out: Biological Assay 1: Bub1 kinase assay median IC50. The protocol:
The stopped reaction mixture was further incubated 1 h at 22° C. in order to allow the formation of complexes between peptides and detection reagents. Subsequently, the amount of product was evaluated by measurement of the resonance energy transfer from the Eu-chelate-antibody complex recognizing the Phosphoserine residue to the streptavidin-XL665 bound to the biotin moiety of the peptide. […] IC50 values were calculated by fitting the normalized inhibition data to a 4-parameter logistic equation (Minimum, Maximum, IC50, Hill; Y=Max+(Min−Max)/(1+(X/IC50)Hill)).

For assay [2], the system named is HeLa cell line. Kind of assay: Proliferation assay (crystal violet). The settings on record: Homo sapiens, 96 h, read-out: Biological Assay 2: Proliferation assay (HeLa cell line) median IC50.
Procedure: Cultivated tumor cells (cells were ordered from ATCC, except HeLa-MaTu and HeLa-MaTu-ADR, which were ordered from EPO-GmbH, Berlin) were plated at a density of 1000 to 5000 cells/well, depending on the growth rate of the respective cell line, in a 96-well multititer plate in 200 μL of their respective growth medium supplemented 10% fetal calf serum. After 24 hours, the cells of one plate (zero-point plate) were stained with crystal violet (see below), while the medium of the other plates was replaced by fresh culture medium (200 μL), to which the test substances were added in various concentrations (0 μM, as well as in the range of 0.001-10 μM; the final concentration of the solvent dimethyl sulfoxide was 0.5%). The cells were incubated for 4 days in the presence of test substances. Cell proliferation was determined by staining the cells with crystal violet: the cells were fixed by adding 20 μL/measuring point of an 11% glutaric aldehyde solution for 15 minutes at room temperature. After three washing cycles of the fixed cells with water, the plates were dried at room temperature. The cells were stained by adding 100 μL/measuring point of a 0.1% crystal violet solution (pH 3.0). After three washing cycles of the stained cells with water, the plates were dried at room temperature. The dye was dissolved by adding 100 μl/measuring point of a 10% acetic acid solution. Absorbtion was determined by photometry at a wavelength of 595 nm. The change of cell number, in percent, was calculated by normalization of the measured values to the absorbtion values of the zero-point plate (=0%) and the absorbtion of the untreated (0 μm) cells (=100%). The IC50 values were determined by means of a 4 parameter fit.
[3] abbreviates: TR-FRET, 10 μM ATP, 1 μM peptide substrate.

In patent US9765058B2, “Substituted benzylpyrazoles” (BAYER PHARMA AKTIENGESELLSCHAFT, priority 2013, dated 2017) one finds IC50 data, which are given here for 19 compounds.

pIC50: −log10 of the molar value. Read-outs that look alike come from different tables or passages of the source.

Turning to `CCOc1cc(F)c(Cn2nc(-c3nccc(Nc4ccncc4C(=O)NC)n3)c(Cl)c2C2CC2)c(F)c1` [Example 2-1-1, 4-({2-[4-chloro-5-cyclopropyl-1-(4-ethoxy-2,6-difluorobenzyl)-1H-pyrazol-3-yl]pyrimidin-4-yl}amino)-N-methylnicotinamide], the figures for the pIC50 in assay [1] (setting [3]) and in assay [2] were 8.33 and under 5.00, respectively.

Take `CCOc1cc(F)c(Cn2cc(Cl)c(-c3ncc(OC)c(Nc4ccncc4)n3)n2)c(F)c1` [Example 2-2-5, 2-[4-chloro-1-(4-ethoxy-2,6-difluorobenzyl)-1H-pyrazol-3-yl]-5-methoxy-N-(pyridin-4-yl)pyrimidin-4-amine]: the results for the pIC50 in assay [1] (setting [3]) and in assay [2] were 7.48 and 5.17, respectively.

`CCOc1cc(F)c(Cn2nc(-c3nccc(Nc4ccncc4)n3)c(Cl)c2C2CC2)c(F)c1` [Example 2-2-1, 2-[4-chloro-5-cyclopropyl-1-(4-ethoxy-2,6-difluorobenzyl)-1H-pyrazol-3-yl]-N-(pyridin-4-yl)pyrimidin-4-amine]: the pIC50 in assay [1] was 8.25; in assay [2] it was 5.06.

For the compound `CCOc1cc(F)c(Cn2nc(-c3nccc(Nc4ccncc4C(N)=O)n3)c(Cl)c2C2CC2)c(F)c1` [Example 2-1-2, 4-({2-[4-chloro-5-cyclopropyl-1-(4-ethoxy-2,6-difluorobenzyl)-1H-pyrazol-3-yl]pyrimidin-4-yl}amino)nicotinamide], the values for the pIC50 in assay [1] (setting [3]) and in assay [2] were 8.09 and 5.07, respectively.

In the case of `CCOc1cc(F)c(Cn2nc(-c3nccc(Nc4ccncc4C(=O)O)n3)c(Cl)c2C2CC2)c(F)c1` [Example 2-3-1, 4-({2-[4-chloro-5-cyclopropyl-1-(4-ethoxy-2,6-difluorobenzyl)-1H-pyrazol-3-yl]pyrimidin-4-yl}amino)nicotinic acid], the pIC50 in assay [1] is 7.96.

`CCOC(=O)c1cnccc1Nc1ccnc(-c2nn(Cc3c(F)cc(OCC)cc3F)c(C3CC3)c2Cl)n1` [Example 2-2-2, ethyl 4-({2-[4-chloro-5-cyclopropyl-1-(4-ethoxy-2,6-difluorobenzyl)-1H-pyrazol-3-yl]pyrimidin-4-yl}amino)nicotinate]: the pIC50 in assay [1] (setting [3]) is 7.43; in assay [2] it was 5.04.

Regarding `CCOc1cc(F)c(Cn2nc(-c3ncc(OC)c(Nc4ccncc4)n3)c(Br)c2C)c(F)c1` [Example 2-2-4, 2-[4-bromo-1-(4-ethoxy-2,6-difluorobenzyl)-5-methyl-1H-pyrazol-3-yl]-5-methoxy-N-(pyridin-4-yl)pyrimidin-4-amine], the values for the pIC50 in assay [1] (setting [3]) and in assay [2] were 7.62 and 5.48, respectively.

Turning to `CCOc1cc(F)c(Cn2nc(-c3ncc(OC)c(Nc4ccncc4)n3)c(C)c2C#N)c(F)c1` [Example 2-2-12, 1-(4-ethoxy-2,6-difluorobenzyl)-3-[5-methoxy-4-(pyridin-4-ylamino)pyrimidin-2-yl]-4-methyl-1H-pyrazole-5-carbonitrile], the values for the pIC50 in assay [1] (setting [3]) and in assay [2] were 7.00 and under 5.00, respectively.

For the compound `CCOc1cc(F)c(Cn2nc(-c3ncc(OC)c(Nc4ccncc4)n3)c(Cl)c2C)c(F)c1` [Example 2-2-3, 2-[4-chloro-1-(4-ethoxy-2,6-difluorobenzyl)-5-methyl-1H-pyrazol-3-yl]-5-methoxy-N-(pyridin-4-yl)pyrimidin-4-amine], the pIC50 is 8.00 in assay [1] (setting [3]) and 5.42 in assay [2].

As to `CCOc1cc(F)c(Cn2nc(-c3ncc(OC)c(Nc4ccncc4)n3)c(F)c2C)c(F)c1` [Example 2-2-6, 2-[1-(4-ethoxy-2,6-difluorobenzyl)-4-fluoro-5-methyl-1H-pyrazol-3-yl]-5-methoxy-N-(pyridin-4-yl)pyrimidin-4-amine], the pIC50 is 7.39 in assay [1] (setting [3]) and 5.35 in assay [2].

As to `CCOc1cc(F)c(Cn2nc(-c3ncc(OC)c(Nc4ccncc4)n3)c(C)c2Br)c(F)c1` [Example 2-2-11, 2-[5-bromo-1-(4-ethoxy-2,6-difluorobenzyl)-4-methyl-1H-pyrazol-3-yl]-5-methoxy-N-(pyridin-4-yl)pyrimidin-4-amine], the pIC50 is 7.89 in assay [1] (setting [3]) and 5.89 in assay [2].

In the case of `CCOc1cc(F)c(Cn2cc(Cl)c(-c3ncc(OC)c(Nc4ccncc4C(=O)NC)n3)n2)c(F)c1` [Example 2-4-2, 4-({2-[4-chloro-1-(4-ethoxy-2,6-difluorobenzyl)-1H-pyrazol-3-yl]-5-methoxypyrimidin-4-yl}amino)-N-methylnicotinamide], the results for the pIC50 in assay [1] (setting [3]) and in assay [2] were 7.89 and under 5.00, respectively.

Turning to `CCOc1cc(F)c(Cn2cc(Cl)c(-c3ncc(OC)c(Nc4ccncc4C(N)=O)n3)n2)c(F)c1` [Example 2-4-3, 4-({2-[4-chloro-1-(4-ethoxy-2,6-difluorobenzyl)-1H-pyrazol-3-yl]-5-methoxypyrimidin-4-yl}amino)nicotinamide], the pIC50 in assay [1] (setting [3]) is 8.13; in assay [2], under 5.00.

With `CCOc1cc(F)c(Cn2nc(-c3ncc(OC)c(Nc4ccncc4C(=O)NC)n3)c(F)c2C)c(F)c1` [Example 2-4-4, 4-({2-[1-(4-ethoxy-2,6-difluorobenzyl)-4-fluoro-5-methyl-1H-pyrazol-3-yl]-5-methoxypyrimidin-4-yl}amino)-N-methylnicotinamide], the pIC50 in assay [1] (setting [3]) is 8.00; in assay [2], under 5.00.

With `CCOc1cc(F)c(Cn2nc(-c3ncc(OC)c(Nc4ccncc4C(N)=O)n3)c(F)c2C)c(F)c1` [Example 2-4-5, 4-({2-[1-(4-ethoxy-2,6-difluorobenzyl)-4-fluoro-5-methyl-1H-pyrazol-3-yl]-5-methoxypyrimidin-4-yl}amino)pyridine-3-carboxamide], the figures for the pIC50 in assay [1] (setting [3]) and in assay [2] were 7.96 and under 5.00, respectively.

For `CCOc1cc(F)c(Cn2nc(-c3nccc(Nc4ccncc4C(=O)NCCO)n3)c(Cl)c2C2CC2)c(F)c1` [Example 2-4-1, 4-({2-[4-chloro-5-cyclopropyl-1-(4-ethoxy-2,6-difluorobenzyl)-1H-pyrazol-3-yl]pyrimidin-4-yl}amino)-N-(2-hydroxyethyl)nicotinamide], the pIC50 in assay [1] was 7.27; in assay [2] it was under 5.00.

For `CCOC(=O)c1cnccc1Nc1nc(-c2nn(Cc3c(F)cc(OCC)cc3F)c(C)c2F)ncc1OC` [Example 2-2-9, ethyl 4-({2-[1-(4-ethoxy-2,6-difluorobenzyl)-4-fluoro-5-methyl-1H-pyrazol-3-yl]-5-methoxypyrimidin-4-yl}amino)nicotinate], the pIC50 in assay [1] (setting [3]) is 7.40.

As for `CCOc1cc(F)c(Cn2nc(-c3ncc(OC)c(Nc4ccncc4)n3)c(C#N)c2C)c(F)c1` [Example 2-2-8, 1-(4-ethoxy-2,6-difluorobenzyl)-3-[5-methoxy-4-(pyridin-4-ylamino)pyrimidin-2-yl]-5-methyl-1H-pyrazole-4-carbonitrile], in assay [1] (setting [3]), the pIC50 is 5.49.

In the case of `CCOc1cc(F)c(Cn2cc(N(C)C)c(-c3ncc(OC)c(Nc4ccncc4)n3)n2)c(F)c1` [Example 2-2-10, 2-[4-(dimethylamino)-1-(4-ethoxy-2,6-difluorobenzyl)-1H-pyrazol-3-yl]-5-methoxy-N-(pyridin-4-yl)pyrimidin-4-amine], the pIC50 in assay [1] (setting [3]) is 6.60; in assay [2] it was under 5.00.
